# Test results: patent US5866775A, “Glyphosate-tolerant 5-enolpyruvyl-3-phosphoshikimate synthases” (Monsanto Company, priority 1990, dated 1999)
# Columns and labels:
# [1] = target: T1, pMON8252 encoded petunia EPSPS variant, glycine (101) to alanine and alanine (192) to threonine (Petunia hybrida, UniProt P11043, A264T/G173A); assay: EPSP synthase kinetic constants (appKm PEP, appKi glyphosate); format: biochemical
# T1 construct: alanine 192 in the mature petunia EPSP synthase; made in house; host or cells: E. coli SR481 (aroA-)
# T1 sequence (P11043 73-516 G173A/A264T): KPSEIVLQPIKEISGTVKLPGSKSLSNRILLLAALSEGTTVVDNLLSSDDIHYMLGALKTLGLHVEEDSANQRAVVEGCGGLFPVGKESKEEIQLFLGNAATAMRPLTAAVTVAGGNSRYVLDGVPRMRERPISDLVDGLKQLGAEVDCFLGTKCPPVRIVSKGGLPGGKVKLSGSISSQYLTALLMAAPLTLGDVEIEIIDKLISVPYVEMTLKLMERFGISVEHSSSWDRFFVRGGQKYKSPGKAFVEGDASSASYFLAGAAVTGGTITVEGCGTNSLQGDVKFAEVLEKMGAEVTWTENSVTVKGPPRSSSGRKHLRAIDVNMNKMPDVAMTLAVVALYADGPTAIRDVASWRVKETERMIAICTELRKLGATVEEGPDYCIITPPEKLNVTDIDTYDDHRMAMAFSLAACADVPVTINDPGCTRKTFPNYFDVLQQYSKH
# Procedure: The balance of the #742 preculture (~750 μl) was used to inoculate 2 ml of 2XYT medium containing 50 μg/ml carbenicillin and was shaken overnight at 37° C. to reach saturation. Plasmid DNA was isolated from an aliquot of the saturated culture using an alkaline lysis procedure. The plasmid was designated pMON8252. An aliquot of the pMON8252 plasmid was used to transform the E. coli host SR481 (described above) and reselected on MOPS medium containing 10 mM glyphosate and 50 μg/ml carbenicillin. A single glyphosate resistant colony of pMON8252 was picked off the selection plate and used to inoculate 3 ml of 2XY1 bacterial medium containing 50 μg/ml carbenicillin. The culture was then aerated on a rotating wheel at 37° C. until saturated and then used to inoculate a larger 250 ml culture. The large culture was grown to saturation by continuously shaking it overnight at 37° C. in a water bath. The bacterial cells were lysed and the extracts were assayed for EPSPS activity.
# Specifically, the bacterial cell paste was washed twice with 0.9% saline, suspended in buffer (100 mM Tris-HCl, 5 mM benzamidine HCl) and passed twice through a French Pressure Cell at 1000 psi. The cell extract was separated from the cells by centrifuging at 15,000×gravity for 10 minutes at 5° C. It was desalted using Sephadex G-50 (Pharmacia, Piscataway, N.J.). The desalted extract was assayed for EPSP synthase activity as follows.
# Kinetic constants (appKm PEP and appKi glyphosate) were determined for EPSP synthase as described below. Substrate kinetic parameters were determined at pH 7.9 in 50 mM HEPES (N-[2-hydroxyethyl]piperazine-N'-[2-ethanesulfonic acid]) buffer in the presence of 2 mM S3P and varying amounts of ^14 C-PEP (10 μM-400 μM), for 2.0 minutes at 25° C. Reactions were quenched with 100 mM NaAcetate in ethanol, pH 4.5, centrifuged and analyzed for product EPSP formation by HPLC with flow radioactivity detection. HPLC conditions were 0.35M KPi, pH 6.5, on a Synchropak AX100 column at 1.0 ml/minute.
# [2] = system: bacteria harboring pMON342 or pMON9566; assay: Glyphosate tolerance of bacteria expressing petunia EPSPS from the double pL promoter; format: cell-based, E. coli; details: either plasmid
# Procedure: The double pL promoter used to express the petunia EPSP synthase in pMON342 and pMON9566 leads to a very high level of expression of the enzyme. The enzyme is present at such high concentration that bacteria harboring either of these plasmids are tolerant to very high levels of glyphosate (>5 mM) in growth media, even though the enzyme produced by pMON342 is the wild type form. […] A plasmid for identifying such a promoter was constructed as follows: pMON9544, the precursor to pMON342, was digested with BamHI to remove the pL promoters, and was recircularized by ligation resulting in pMON362. The EcoRI fragment of pMON9556 containing the 3'portion of the petunia EPSPS cDNA was then inserted into the EcoRI site of this plasmid reconstituting the entire coding sequence. The resulting plasmid, pMON364 is identical to pMON342 except that there is no promoter 5' of the EPSP synthase coding sequence.
# [3] = system: petunia leaf disks transformed with pMON546 (CaMV35S/EPSP synthase gene); assay: Leaf disk callus growth on glyphosate medium, transformed disks; format: cell-based; details: within 10 days
# Procedure: Leaf disks with diameters of 6 mm (1/4 inch) were taken from surface-sterilized petunia leaves. They were cultured on MS104 agar medium for 2 days to promote partial cell wall formation at the wound surfaces. They were then submerged in a culture of A. tumefaciens cells containing both pMON546 and GV3111-SE which had grown overnight in Luria broth at 28° C., and shaken gently. The leaf disks were removed from the bacterial suspension, blotted dry, and incubated upside down on filter paper placed over "nurse" cultures of tobacco cells, as described by Horsch (1980). After 2 or 3 days, the disks were transferred to petri dishes containing MS media with 500 μg/ml carbenicillin and 0. 0.1, 0.25, or 0.5 mM glyphosate (sodium salt), with no nurse cultures.
# [4] = system: wildtype petunia plant or transformed with control vector (pMON505); assay: Plant response to glyphosate spraying, control plants; format: in vivo; details: 0.8 #/acre acid equivalent (0.897 kg/hectare), isopropylamine salt, spray
# Procedure: (§1) Four individual representative transgenic seedlings were selected, grown and tested in the testing procedure described below, along with four individual non-transformed (wild-type) petunia seedlings.
# (§2) The plants were grown in a growth medium in a growth chamber at 26° C. with 12 hours of light per day. The plants were fertilized weekly with a soluble fertilizer and watered as needed. The plants were sprayed at a uniform and reproducible delivery rate of herbicide by use of an automated track sprayer. The glyphosate solution used was measured as pounds of glyphosate acid equivalents per acre, mixed as the glyphosate isopropylamine salt, with an ionic surfactant.
# Four individual wild-type (non-transformed) petunia plants were selected for use as control plants. Four individual transformed plants containing the pMON546 vector were selected by kanamycin resistance as described by Horsch, et al. (1985).
# The control plants and the transformed plants were sprayed with the isopropylamine salt of glyphosate at the application level listed in Table 2 below; the experimental results obtained are also summarized in Table 2.
# [5] = system: petunia plants transformed with pMON546 (CaMV35S/wild-type petunia EPSP synthase); assay: Plant response to glyphosate spraying, chimeric EPSPS plants; format: in vivo; details: 0.8 #/acre acid equivalent (0.897 kg/hectare), isopropylamine salt, spray
# Excerpt: Transformed petunia plants were produced by regeneration from the above-described transformed leaf disks by the procedure described by Horsch, et al. (1985). The transformed plants obtained contained the pMON546 vector, described hereinabove, which contains the CaMV35S promoter fused to the wild-type petunia EPSP synthase gene.
# as §1, §2
# Four individual wild-type (non-transformed) petunia plants were selected for use as control plants. Four individual transformed plants containing the pMON546 vector were selected by kanamycin resistance as described by Horsch, et al. (1985). […]
# [6] = system: tobacco, sugarbeet, tomato, soybean and cotton plants transformed with the variant EPSPS gene; assay: Glyphosate tolerance of other transformed plant species; details: in vivo
# Excerpt: A gene encoding the variant EPSPS enzyme of the present invention having a glycine to alanine substitution at position 101 and an alanine to threonine substitution at position 192 of the mature EPSPS enzyme has also been introduced into other plant species such as tobacco, sugarbeet, tomato, soybean and cotton. […] In particular, the glycine to alanine and alanine to threonine substitutions of the present invention have been introduced into a genomic clone of the Arabidopsis EPSPS gene and this gene introduced into canola and tobacco plants using suitable plant transformation vectors.
structure (smiles),measurement,setting,value
"O=C(O)CNCP(=O)(O)O [glyphosate, N-phosphonomethylglycine]",Ki /Km ratio,[1]; Ki glyphosate / Km PEP,12.6
same,Ki for glyphosate,"[1]; versus PEP, extract of SR481 cells with pMON8252",683 µM
same,glyphosate level tolerated in growth media,[2],> 5 mM
same,"callus growth, transformed versus control disks",[3]; 0.1 mM glyphosate (sodium salt),little detectable difference between the control disks and the transformed tissue
same,callus growth,[3]; 0.25 mM glyphosate (sodium salt),substantial growth of transformed tissue occurred
same,callus growth,[3]; 0.5 mM glyphosate (sodium salt),a significant number of calli grew from the transformed disks
same,Visual Appearance,[4],completely dead
same,Visual Appearance,[5],growing well
same,glyphosate tolerance of transformed plants,[6],exhibited glyphosate tolerance
